Measured values reported in patent publication US10681909B2, “Herbicidal triazoles” (FMC Corporation, priority 2014, dated 2020).

Key:
blackgrass = assay: Test C postemergence; assay type: in vivo, Alopecurus myosuroides
Description: (§1) Seeds of plant species selected from blackgrass (Alopecurus myosuroides), ryegrass, Italian (Italian ryegrass, Lolium multiflorum), wheat (winter wheat, Triticum aestivum), galium (catchweed bedstraw, Galium aparine), corn (Zea mays), crabgrass, large (large crabgrass, Digitaria sanguinalis), foxtail, giant, (giant foxtail, Setaria faberii), johnsongrass (Sorghum halepense), lambsquarters (Chenopodium album), morningglory (Ipomoea coccinea), nutsedge, yellow (yellow nutsedge, Cyperus esculentus), pigweed (Amaranthus retroflexus), ragweed (common ragweed, Ambrosia elatior), soybean (Glycine max), barnyardgrass (Echinochloa crus-galli), oilseed rape (Brassica napus), waterhemp (common waterhemp, Amaranthus rudis), and velvetleaf (Abutilon theophrasti) were planted into a blend of loam soil and sand and treated preemergence with test chemicals formulated in a non-phytotoxic solvent mixture which included a surfactant. At the same time, plants selected from these crop and weed species and also chickweed (common chickweed, Stellaria media), oat, wild (wild oat, Avena fatua), and kochia (Kochia scoparia), were planted in pots containing Sunshine Redi-Earth® planting medium comprising spaghnum peat moss, vermiculite, starter nutrients and dolomitic limestone and treated with postemergence applications of test chemicals formulated in the same manner. Plants ranged in height from 2 to 18 cm (1- to 4-leaf stage) for postemergence treatments. […] A dash (-) response means no test result.

wheat = assay: Test A postemergence; assay type: in vivo, Triticum aestivum; settings: Triticum aestivum, post-emergence, 240 h, 0 to 100 scale (0 no effect, 100 complete control), approx. 10 d, read-out: Plant response rating, Wheat
Method in brief: (§2)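 For preemergence, seeds were sown in a loam soil-sand blend and given a directed soil spray of test chemical in a non-phytotoxic solvent mixture with surfactant. For postemergence, plants in pots of the same blend were sprayed with the same formulation at the one- to two-leaf stage, 2 to 10 cm tall.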

foxtail, giant [1] = assay: Test A postemergence; assay type: in vivo, Setaria faberii; settings: Setaria faberi, post-emergence, 240 h, 0 to 100 scale (0 no effect, 100 complete control), approx. 10 d, read-out: Plant response rating, Foxtail, Giant
Method in brief: as §2

crabgrass, large = assay: Test C postemergence; assay type: in vivo, Digitaria sanguinalis
Description: as §1

ryegrass, Italian = assay: Test C postemergence; assay type: in vivo, Lolium multiflorum
Description: as §1

barnyardgrass [2] = assay: Test A preemergence; assay type: in vivo, Echinochloa crus-galli; settings: Echinochloa crus-galli, pre-emergence, 240 h, 0 to 100 scale (0 no effect, 100 complete control), read-out: Plant response rating, Barnyardgrass
Method in brief: as §2

corn = assay: Test C postemergence; assay type: in vivo, Zea mays
Description: as §1

barnyardgrass [3] = assay: Test A postemergence; assay type: in vivo, Echinochloa crus-galli; settings: Echinochloa crus-galli, post-emergence, 240 h, 0 to 100 scale (0 no effect, 100 complete control), approx. 10 d, read-out: Plant response rating, Barnyardgrass
Method in brief: as §2

galium = assay: Test C postemergence; assay type: in vivo, Galium aparine
Description: as §1

morningglory = assay: Test C postemergence; assay type: in vivo, Ipomoea coccinea
Description: as §1

barnyardgrass [4] = assay: Test C postemergence; assay type: in vivo, Echinochloa crus-galli
Description: as §1

waterhemp = assay: Test C postemergence; assay type: in vivo, Amaranthus rudis
Description: as §1

oilseed rape = assay: Test C postemergence; assay type: in vivo, Brassica napus
Description: as §1

velvetleaf = assay: Test C postemergence; assay type: in vivo, Abutilon theophrasti
Description: as §1

foxtail, giant [5] = assay: Test A preemergence; assay type: in vivo, Setaria faberii; settings: Setaria faberi, pre-emergence, 240 h, 0 to 100 scale (0 no effect, 100 complete control), read-out: Plant response rating, Foxtail, Giant
Method in brief: as §2

johnsongrass = assay: Test C postemergence; assay type: in vivo, Sorghum halepense
Description: as §1

nutsedge, yellow = assay: Test C postemergence; assay type: in vivo, Cyperus esculentus
Description: as §1

kochia = assay: Test C postemergence; assay type: in vivo, Kochia scoparia
Description: as §1

pigweed = assay: Test A postemergence; assay type: in vivo, Amaranthus retroflexus; settings: Amaranthus retroflexus, post-emergence, 240 h, 0 to 100 scale (0 no effect, 100 complete control), approx. 10 d, read-out: Plant response rating, Pigweed
Method in brief: as §2

CCOc1nc(-c2ccc(C(F)(F)F)cc2)nn1Cc1ccnc(C(F)(F)F)c1 [Compound 35, 4-[[5-ethoxy-3-[4-(trifluoromethyl)phenyl]-1H-1,2,4-triazole-1-yl]methyl]-2-(trifluoromethyl)pyridine]
Plant response rating (scale of 0 to 100 where 0 is no effect and 100 is complete control) (blackgrass; 31 g ai/ha): 65 | Plant response rating (scale of 0 to 100 where 0 is no effect and 100 is complete control) (blackgrass; 62 g ai/ha): 70 | Plant response rating (scale of 0 to 100 where 0 is no effect and 100 is complete control) (blackgrass; 125 g ai/ha): 85 | Plant response rating (scale of 0 to 100 where 0 is no effect and 100 is complete control) (blackgrass; 250 g ai/ha): 85 | plant injury at 31 g/ha (wheat; 31 g ai/ha): 40% | plant injury at 125 g/ha (wheat; 125 g ai/ha): 70% | pest or weed control at 31 g/ha (foxtail, giant [1]; 31 g ai/ha): 80% | pest or weed control at 125 g/ha (foxtail, giant [1]; 125 g ai/ha): 90% | Plant response rating (scale of 0 to 100 where 0 is no effect and 100 is complete control) (crabgrass, large; 31 g ai/ha): 35 | Plant response rating (scale of 0 to 100 where 0 is no effect and 100 is complete control) (crabgrass, large; 62 g ai/ha): 60 | Plant response rating (scale of 0 to 100 where 0 is no effect and 100 is complete control) (crabgrass, large; 125 g ai/ha): 70 | Plant response rating (scale of 0 to 100 where 0 is no effect and 100 is complete control) (crabgrass, large; 250 g ai/ha): 80 | Plant response rating (scale of 0 to 100 where 0 is no effect and 100 is complete control) (ryegrass, Italian; 31 g ai/ha): 30 | Plant response rating (scale of 0 to 100 where 0 is no effect and 100 is complete control) (ryegrass, Italian; 62 g ai/ha): 55 | Plant response rating (scale of 0 to 100 where 0 is no effect and 100 is complete control) (ryegrass, Italian; 125 g ai/ha): 60 | Plant response rating (scale of 0 to 100 where 0 is no effect and 100 is complete control) (ryegrass, Italian; 250 g ai/ha): 80 | pest or weed control at 31 g/ha (barnyardgrass [2]; 31 g ai/ha): 80% | pest or weed control at 125 g/ha (barnyardgrass [2]; 125 g ai/ha): 100% | Plant response rating (scale of 0 to 100 where 0 is no effect and 100 is complete control) (corn; 31 g ai/ha): 25 | Plant response rating (scale of 0 to 100 where 0 is no effect and 100 is complete control) (corn; 62 g ai/ha): 20 | Plant response rating (scale of 0 to 100 where 0 is no effect and 100 is complete control) (corn; 125 g ai/ha): 25 | Plant response rating (scale of 0 to 100 where 0 is no effect and 100 is complete control) (corn; 250 g ai/ha): 50 | pest or weed control at 31 g/ha (barnyardgrass [3]; 31 g ai/ha): 80% | pest or weed control at 125 g/ha (barnyardgrass [3]; 125 g ai/ha): 90% | Plant response rating (scale of 0 to 100 where 0 is no effect and 100 is complete control) (galium; 31 g ai/ha): 80 | Plant response rating (scale of 0 to 100 where 0 is no effect and 100 is complete control) (galium; 62 g ai/ha): 80 | Plant response rating (scale of 0 to 100 where 0 is no effect and 100 is complete control) (galium; 125 g ai/ha): 90 | Plant response rating (scale of 0 to 100 where 0 is no effect and 100 is complete control) (galium; 250 g ai/ha): 90 | Plant response rating (scale of 0 to 100 where 0 is no effect and 100 is complete control) (morningglory; 31 g ai/ha): 70 | Plant response rating (scale of 0 to 100 where 0 is no effect and 100 is complete control) (morningglory; 62 g ai/ha): 95 | Plant response rating (scale of 0 to 100 where 0 is no effect and 100 is complete control) (morningglory; 125 g ai/ha): 85 | Plant response rating (scale of 0 to 100 where 0 is no effect and 100 is complete control) (morningglory; 250 g ai/ha): 95 | Plant response rating (scale of 0 to 100 where 0 is no effect and 100 is complete control) (barnyardgrass [4]; 31 g ai/ha): 30 | Plant response rating (scale of 0 to 100 where 0 is no effect and 100 is complete control) (barnyardgrass [4]; 62 g ai/ha): 45 | Plant response rating (scale of 0 to 100 where 0 is no effect and 100 is complete control) (barnyardgrass [4]; 125 g ai/ha): 60 | Plant response rating (scale of 0 to 100 where 0 is no effect and 100 is complete control) (barnyardgrass [4]; 250 g ai/ha): 85 | Plant response rating (scale of 0 to 100 where 0 is no effect and 100 is complete control) (waterhemp; 31 g ai/ha): 98 | Plant response rating (scale of 0 to 100 where 0 is no effect and 100 is complete control) (waterhemp; 62 g ai/ha): 98 | Plant response rating (scale of 0 to 100 where 0 is no effect and 100 is complete control) (waterhemp; 125 g ai/ha): 95 | Plant response rating (scale of 0 to 100 where 0 is no effect and 100 is complete control) (waterhemp; 250 g ai/ha): 98 | Plant response rating (scale of 0 to 100 where 0 is no effect and 100 is complete control) (oilseed rape; Oilsee Rape, 250 g ai/ha): 98 | Plant response rating (scale of 0 to 100 where 0 is no effect and 100 is complete control) (oilseed rape; Oilseed Rape, 31 g ai/ha): 80 | Plant response rating (scale of 0 to 100 where 0 is no effect and 100 is complete control) (oilseed rape; Oilseed Rape, 62 g ai/ha): 90 | Plant response rating (scale of 0 to 100 where 0 is no effect and 100 is complete control) (oilseed rape; Oilseed Rape, 125 g ai/ha): 80 | Plant response rating (scale of 0 to 100 where 0 is no effect and 100 is complete control) (velvetleaf; 31 g ai/ha): 65 | Plant response rating (scale of 0 to 100 where 0 is no effect and 100 is complete control) (velvetleaf; 62 g ai/ha): 75 | Plant response rating (scale of 0 to 100 where 0 is no effect and 100 is complete control) (velvetleaf; 125 g ai/ha): 80 | Plant response rating (scale of 0 to 100 where 0 is no effect and 100 is complete control) (velvetleaf; 250 g ai/ha): 85 | pest or weed control at 31 g/ha (foxtail, giant [5]; 31 g ai/ha): 100% | pest or weed control at 125 g/ha (foxtail, giant [5]; 125 g ai/ha): 100% | Plant response rating (scale of 0 to 100 where 0 is no effect and 100 is complete control) (johnsongrass; 31 g ai/ha): 75 | Plant response rating (scale of 0 to 100 where 0 is no effect and 100 is complete control) (johnsongrass; 62 g ai/ha): 85 | Plant response rating (scale of 0 to 100 where 0 is no effect and 100 is complete control) (johnsongrass; 125 g ai/ha): 95 | Plant response rating (scale of 0 to 100 where 0 is no effect and 100 is complete control) (johnsongrass; 250 g ai/ha): 100 | Plant response rating (scale of 0 to 100 where 0 is no effect and 100 is complete control) (nutsedge, yellow; 31 g ai/ha): 20 | Plant response rating (scale of 0 to 100 where 0 is no effect and 100 is complete control) (nutsedge, yellow; 62 g ai/ha): 10 | Plant response rating (scale of 0 to 100 where 0 is no effect and 100 is complete control) (nutsedge, yellow; 125 g ai/ha): 30 | Plant response rating (scale of 0 to 100 where 0 is no effect and 100 is complete control) (nutsedge, yellow; 250 g ai/ha): 35 | Plant response rating (scale of 0 to 100 where 0 is no effect and 100 is complete control) (kochia; 31 g ai/ha): 90 | Plant response rating (scale of 0 to 100 where 0 is no effect and 100 is complete control) (kochia; 62 g ai/ha): 90 | Plant response rating (scale of 0 to 100 where 0 is no effect and 100 is complete control) (kochia; 125 g ai/ha): 90 | Plant response rating (scale of 0 to 100 where 0 is no effect and 100 is complete control) (kochia; 250 g ai/ha): 90 | pest or weed control at 31 g/ha (pigweed; 31 g ai/ha): 100% | pest or weed control at 125 g/ha (pigweed; 125 g ai/ha): 100%
